According to US9494524B2, “Assay for analytes based on aggregation” (priority 2010, dated 2016):
Where two headings read alike, the source gives them in different places.

Key:
[1] = tested on: T1, Phospholipase A2 from Naja mossambica mossambica; assay type: biochemical
T1 construct: IC50; other: CF-loaded liposomes, PLA2 7 nM, 37° C; other: PLA2 7 nM, gold nanoparticles 0.1 nM, liposomes 1.4 nM, 10 minutes at 37° C., Hill fit of Δλmax; lag time
Experimental: (§1) Methodology: Mixed solutions of 20 nm JR2EC-functionalised gold nanoparticles and 100 nm JR2KC2-loaded liposomes were prepared in accordance with Example 1. Absorption spectra were measured for the solutions under various solution conditions, as discussed below.
(§2) Methodology: JR2KC2 loaded liposomes, carboxyfluorescein (CF)-loaded liposomes and JR2EC-functionalised gold nanoparticles were prepared as described in Example 1. A mixture of PLA2 and chlorpromazine was added to the suspensions of liposomes. The assay response was recorded spectroscopically (in the UV-visible range) after incubating various concentrations of chlorpromazine with PLA2 (7 nM), functionalized gold nanoparticles (0.1 nM) and liposomes (1.4 nM) for 10 minutes at 37° C. For JR2KC2-loaded liposomes, the assay response was measured spectroscopically (in the UV-visible range) by recording spectra in the range 400-800 nm with 2 minute intervals using a Perkin Elmer Lambda 25 Spectrophotometer, and then extracting Δλmax.
(§3) This value was obtained by fitting the data to the monophasic Hill equation: […]

[2] = target: T1, Phospholipase A2 from Naja mossambica mossambica; assay: traditional carboxyfluorescein (CF)-based fluorescence assay with CF-loaded liposomes; assay type: biochemical; conditions: PLA2 7 nM, 37° C.
Experimental: Carboxyfluorescein-loaded liposomes were prepared similarly, except that the rehydration solution was 50 mM CF, 20 mM phosphate, adjusted to pH 7 with NaOH. The untrapped dye was removed by filtration on a Sephadex G-25 column with PBS as eluent. The total lipid concentration in all samples was determined using the Stewart assay.^21
Methodology: Liposomes containing 50 mM of carboxyfluorescein were prepared as described in Example 1. The final lipid concentration in the sample was 30 μg/ml. The liposomes were incubated with solutions of PLA2 at a variety of concentrations for 30 minutes. Experiments were performed on a Perkin Elmer fluorimeter with an excitation wavelength of 490 nm and an emission wavelength of 520 nm. […]
as §2, with “A mixture of PLA2 and chlorpromazine was added to the suspensions of liposomes.” left out

PLA2 = conditions: literature values; read-out: IC50 previously reported; cited from earlier work
[3] = tested on: Phospholipase A2 from Naja mossambica mossambica; assay type: biochemical; conditions: in the presence of PLA2 and EDTA, room temperature (FIG. 3A)
Experimental: as §1, §2, §3

| Structure (SMILES) | lag time ([1]; 10 μM inhibitor, 7 nM PLA2, about 5 minutes without the inhibitor) | concentration of active non-inhibited PLA2 relative to actual PLA2 concentration ([1]; 10 μM inhibitor, read from lag time (FIG. 12b)) | IC50 ([1]; PLA2 7 nM, gold nanoparticles 0.1 nM, liposomes 1.4 nM, 10 minutes at 37° C., Hill fit of Δλmax) | IC50 [2] | IC50 (PLA2) | effect on PLA2-induced nanoparticle aggregation [3] |
| --- | --- | --- | --- | --- | --- | --- |
| CN(C)CCCN1c2ccccc2Sc2ccc(Cl)cc21 [chlorpromazine] | approximately 15 minutes | about half | 6.5 µM | 10 µM | 10 to 100 µM |  |
| O=C(O)CN(CCN(CC(=O)O)CC(=O)O)CC(=O)O [EDTA, ethylenediaminetetraacetic acid] |  |  |  |  |  | prevented aggregation |
